Several values for one entry are separate records, joined by “and”; a condition that tells them apart may be missing. Equal values may be shown once. Marks after values point to notes of the source that are not given here.

Series [1] relates to HFD-fed C57BL/6 male mice. In words: Garcinol versus garcinol blend in HFD-fed C57BL/6 mice, 16 weeks (Example 3). The class given is in vivo, mouse. The protocol: The present invention studied the anti-obesity effects of garcinol compared to a composition comprising garcinol, pterostilbene and anthocyanin (garcinol blend (GB) in mammals. The study was conducted in vivo on 5 weeks old C57BL/6 male mice. A total of 42 mice were involved in this study with 6 groups of 7 mice each. The groups were divided as in table 8.
The high fat diet (HFD) groups were fed 45% high fat diet for 16 weeks for the induction of obesity and concurrently administered the test substance as indicated in the aforesaid table. The normal group was fed with normal diet for 16 weeks.
Body weight was monitored weekly, and the average body weight of each group (n=7) was expressed as the means±SE.

The subject of series [2] is Gut Microbiota in HFD-Fed Mice. As to the kind of experiment: Gut microbiota classification by next generation sequencing (Example 4). Format: in vivo, mouse. The protocol: Total DNA was extracted from fresh fecal samples by using the innuPREP Stool DNA kit (Analytik Jena AG, Jena, Germany) according to the manufacturer's instructions. According to the concentration, DNA was diluted to 1 ng μ L^−1 using sterile water. 6SrRNA/18SrRNA/ITS genes of distinct region (16SV4/16SV3/16SV3-V4/16SV4-V5, 18S V4/18S V9, ITS1/ITS2, Arc V4) were amplified using a specific primer (e.g. 16SV4: 515F-806R, 18S V4: 528F-706R, and 18S V9: 1380F-1510R) with a barcode. All PCR reactions were carried out using a Phusion® High-Fidelity PCR master mix (New England Biolabs, Ipswich, Mass., USA). The PCR products were mixed in ratios of equal density. Then, the mixed PCR products were purified using a Qiagen gel extraction kit (Qiagen, Hilden, Germany). Sequencing libraries were generated using the TruSeq® DNA PCR-free sample preparation kit (Illumina, San Diego, Calif., USA) following the manufacturer's recommendations, and index codes were added. The library quality was assessed using the Qubit@ 2.0 Fluorometer (Thermo Scientific) and Agilent Bioanalyzer 2100 system. Lastly, the library was sequenced using an Illumina HiSeq 2500 platform, and 250 bp paired-end reads were generated. The classification was based on the Greengenes database (https://greengenes.lbl.gov/).

Series [3] has as its system HFD-Induced Obese Mice (C57BL/6). As to the kind of experiment: GAR, FOR, LMIX, HMIX in HFD-induced obese mice, 12 weeks (Example 4).
Experimental: Four-week-old, male C57BL/6 mice were purchased from the BioLASCO Experimental Animal Center (Taiwan Co., Ltd., Taipei, Taiwan) and housed in a controlled atmosphere (25±1° C. at 50% relative humidity) with a 12 h light/12 h dark cycle. After 1 week of acclimation, animals were randomly distributed into 6 groups as follows: normal diet (ND, 15% energy from fat), high-fat diet (HFD, 50% energy from lard-based fat), and HFD supplemented with 0.01% garcinol (GAR group), 0.025% Forskolin (FOR group), 0.005% GAR+0.025% FOR (LMIX group), and 0.01% Gar+0.025% For (HMIX group) for 12 weeks. […] Animals had free access to food and water. Food consumption was monitored daily and the body weight was recorded weekly. At the end of the experiments, all animals were sacrificed by CO2 asphyxiation. Blood samples were collected from the heart for biochemical analysis. The liver, spleen, kidney, fat pads (perigonadal, retroperitoneal, and mesenteric fat), and fresh fecal pellets were immediately removed and stored at −80° C. until further analysis.
Liver and the perigonadal adipose tissue were dissected and fixed in 10% buffered formalin for at least 24 h, dehydrated with a sequence of ethanol solutions, and processed for embedding in paraffin. Sections of 4 μm in thickness were cut, deparaffinized, rehydrated, stained with hematoxylin and eosin (H&E), and subjected to photo microscopic observation. Adipocyte size was measured at 100× magnification and determined by Image J software (U. S. National Institutes of Health, Bethesda, Md., USA).

With `C=C(C)[C@@H](CC=C(C)C)C[C@@]12C[C@@H](CC=C(C)C)C(C)(C)[C@@](CC=C(C)C)(C(=O)C(C(=O)c3ccc(O)c(O)c3)=C1O)C2=O` [garcinol], in series [1] (HFD + 0.1% test substance), the Final weight is given as 32.1 ± 2.6^b g and the Weight gain is on record as 10.5 ± 2.1^b g. In series [1] (HFD + 0.5% test substance), the Final weight is reported as 25.4 ± 0.8^b g and the Weight gain is 3.9 ± 0.6^b g. Besides, in series [2] (12 weeks (HFD group 43.0%)), the “abundance of Firmicutes” value is on record as 33.9%. Also, in series [2] (12 weeks (HFD group 50.2%)), the “abundance of Bacteroidetes” value amounted to 62.4%. The “OTUs difference between ND and HFD groups (Venn diagram)” value in series [2] (12 weeks, FIG. 23A) came out at 26 OTUs. Also, the Weight gain in series [3] (0.01% GAR, 0.025% FOR, LMIX, HMIX) is recorded as 12.7 ± 2.0^b g. Besides, the Final weight in series [3] (0.01% GAR, 0.025% FOR, LMIX, HMIX, listed as GAR) was 34.4 g and 34.4 ± 2.6^b g. In series [3] (organ weight), the Kidney was 0.4 ± 0.03^a g, the Liver is given as 1.6 ± 0.2^b g and the Spleen is recorded as 0.06 ± 0.01^a g.
